In patent US8680087B2, “Macrocyclic amides, pharmaceutical compositions, preparation methods and uses thereof” (Yuxi Winhey Bio-Tech Co., Ltd., priority 2009, dated 2014):
≈ marks a conversion by molar mass, not a printed value. Like-named read-outs stand apart in the source and are kept apart here.

Experiments:
Type in all cases: cell-based
[1] = test system: Streptococcus pyogenes; experiment: Antibacterial activity test, standard dilution method (MIC); conditions: 24 hr and 48 hr, trypticase soy broth, 35° C.
Description: (§1) The following antibacterial activity test of WH-21091 was conducted to illustrate the antibacterial activity of WH-21091. Standard dilution method was adopted, and the measurement was conducted under 35° C. After culturing for 24 hours, the minimum inhibition concentrations (MICs) of WH-21091 were obtained.

[2] = test system: Escherichia coli; experiment: as above; conditions: 24 hr and 48 hr, trypticase soy broth, 35° C.
Description: as §1

[3] = test system: Enterococcus faecalis; experiment: as above; conditions: 24 hr and 48 hr, trypticase soy broth, 35° C.
Description: as §1

[4] = test system: S. aureus MSRA (clinical isolates of methicilllin-resistant strains); experiment: as above; conditions: Staphylococcus aureus
Description: as §1

[5] = test system: Staphylococcus epidermidis; experiment: as above; conditions: 24 hr and 48 hr, trypticase soy broth, 35° C.
Description: as §1

[6] = test system: Pseudomonas aeruginosa; experiment: as above; conditions: 24 hr and 48 hr, trypticase soy broth, 35° C.
Description: as §1

[7] = test system: breast cancer MCF-7 cells; experiment: In vitro antitumor activity test (method of Skehan et al.); conditions: Homo sapiens, MCF7; MCF-7 breast cancer cells
Description: (§2) Following the method described by Skehan et al. (1990), in vitro antitumor activity tests of WH-21091 on human lung cancer H460, breast cancer MCF-7 and cervix cancer Hela cells were conducted.

[8] = test system: human lung cancer H460 cells; experiment: as above; conditions: NCI-H460
Description: as §2

[9] = test system: cervix cancer Hela cells; experiment: as above; conditions: Homo sapiens
Description: as §2

Row | MIC ([4]; S. aureus MSRA, clinical isolates of methicilllin-resistant strains, 24 hr and 48 hr, trypticase soy broth, 35° C., read-out: MIC) [µg/mL] | IC50 [7] [µg/mL] | IC50 [8] [µg/mL] | IC50 [9] [µg/mL] | SMILES | MIC [1] [µg/mL] | MIC [2] [µg/mL] | MIC [3] [µg/mL] | MIC [5] [µg/mL] | MIC [6] [µg/mL] | MIC [4] [µg/mL]
1 | 4 (≈ 9.4 µM) | 0.81 (≈ 1.9 µM) | 0.1 (≈ 0.235 µM) | 0.24 (≈ 0.564 µM) | CC1CC(C)CC(C(O)Cc2cccc(O)c2C(=O)O)NC(=O)C(O)C(O)C(O)C1 (stereo not drawn) [WH-21091] | 4 (≈ 9.4 µM) | 4 (≈ 9.4 µM) | 32 (≈ 75.2 µM) | 8 (≈ 18.8 µM) | > 32 | –
2 | – | – | – | – | CC[C@H]1OC(=O)[C@H](C)[C@@H](O[C@H]2C[C@@](C)(OC)[C@@H](O)[C@H](C)O2)[C@H](C)[C@@H](O[C@@H]2O[C@H](C)C[C@H](N(C)C)[C@H]2O)[C@](C)(O)C[C@@H](C)C(=O)[C@H](C)[C@@H](O)[C@]1(C)O [erythromycin, reference compound] | 0.03 (≈ 0.0409 µM) | 1 (≈ 1.36 µM) | > 32 | 0.25 (≈ 0.341 µM) | > 32 | > 32
